Results taken from patent US9066936B2, “Solid pharmaceutical composition comprising a benzimidazole-7-carboxylate derivative and a pH control agent” (Takeda Pharmaceutical Company Limited, priority 2007, dated 2015).

Key:
[1] = Solubility of compound A in aqueous solutions with different pHs; assay type: physicochemical; details: thermodynamic from solid, 25° C.
Description: An excess amount of compound A and an aqueous solution were placed in a test tube, and the mixture was shaken at 25° C. for 30 sec every 5 min. After 30 min, the solution was filtered with a 0.45 μm membrane filter to give a sample. Using the sample, the concentration of compound A was measured under the following HPLC conditions.
detector: ultraviolet absorption photometer,
measurement wavelength: 260 nm
column: YMC-Pack ProC18, 3 μm, inner diameter: 6 mm,
column temperature: 25° C. • mobile phase: 0.05 mol/L phosphate buffer (pH 3.0)/acetonitrile mixed solution (1:1)

[2] = pH of pH control agent dissolved or suspended in water; assay type: physicochemical; details: 1% w/v in water at 25° C.
Description: Here, the pH of the pH control agent is measured under the following conditions. To be precise, it is a pH of a solution or suspension obtained by dissolving or suspending a pH control agent in water at a concentration of 1% w/v at 25° C.
A pH control agent was dissolved or suspended in water at a concentration of 1% w/v at 25° C., and the resulting solution or suspension was measured for pH.

In the case of `CCOc1nc2cccc(C(=O)OCc3oc(=O)oc3C)c2n1Cc1ccc(-c2ccccc2-c2noc(=O)[nH]2)cc1.[K]` [compound A, (5-methyl-2-oxo-1,3-dioxol-4-yl)methyl 2-ethoxy-1-{[2′-(5-oxo-4,5-dihydro-1,2,4-oxadiazol-3-yl)biphenyl-4-yl]methyl}-1H-benzimidazole-7-carboxylate potassium salt], the solubility at 30 min ([1]; aqueous buffer, pH 2.0 Britton Robinson buffer) is reported as < 10 µg/mL, the solubility at 30 min ([1]; aqueous buffer, pH 3.0 Britton Robinson buffer) is reported as < 10 µg/mL and the solubility at 30 min ([1]; aqueous buffer, pH 4.0 Britton Robinson buffer) is reported as < 10 µg/mL. For the same compound, the solubility at 30 min ([1]; aqueous buffer, pH 5.0 Britton Robinson buffer) was < 10 µg/mL, the solubility at 30 min ([1]; aqueous buffer, pH 6.0 Britton Robinson buffer) was < 10 µg/mL and the solubility at 30 min ([1]; aqueous buffer, pH 7.0 Britton Robinson buffer) was 940 µg/mL. The solubility at 30 min ([1]; simulated gastric fluid, 0.1 mol/L HCl) was < 10 µg/mL.
In the case of `O=P([O-])(O)O.[Na+]` [sodium dihydrogen phosphate], the “pH (25° C.)” value [2] is reported as 4.56.
For `O=C([O-])/C=C/C(=O)O.[Na+]` [monosodium fumarate], the “pH (25° C.)” value [2] was 3.57.
